Reference: patent publication EP1493444A1, “Pharmaceutical composition used as anti-infective of the upper respiratory tract” (priority 2003, dated 2005)

Test system: muqueuse
Experiment: Comparative acute in vivo toxicity (mucosal irritation, C20)
Parameters: species or system lapin
Details: for concentration théorique provoquant une irritation de la muqueuse moyenne identique (C20): rabbit, in vivo
From the text: Enfin, une autre expérience a encore consisté à comparer la toxicité aiguë in vivo du polihexanide avec celle d'autres composés.
A cet effet, la toxicité du polihexanide a été comparée in vivo chez le lapin à celle du digluconate de chlorhexidine, et à celle de trois chlorures de benzyldiméthylalkylammonium.
Pour chacune des substances étudiées, une concentration théorique provoquant une irritation de la muqueuse moyenne identique (C20) a été déterminée.
Ces concentrations sont respectivement : • 0,25 g % pour le chlorure de benzalkonium • 0,28 g % pour le chlorure de benzyldiméthyldodecylammonium • 0,32 g % pour le chlorure de benzyldiméthylhexadecylanmonium • 0,54 g % pour le digluconate de chlorhexidine • 12,2 g % pour le polihexanide.
Ces valeurs montrent par conséquent, que le polihexanide est beaucoup moins toxique pour la muqueuse que les autres composés testés, puisque sa valeur C20 est 22 fois supérieure à celle de la chlorhexidine et 44 fois plus élevée que la valeur moyenne des chlorures de benzalkonium.

Compound | concentration théorique provoquant une irritation de la muqueuse moyenne identique (C20) | valeur C20 supérieure à celle de la chlorhexidine (ratio of C20 values, versus chlorhexidine) [fois] | valeur C20 plus élevée que la valeur moyenne des chlorures de benzalkonium (ratio of C20 values, versus the mean of the benzalkonium chlorides) [fois]
CCCCCCCCCCCC[N+](C)(C)Cc1ccccc1 [chlorure de benzyldiméthyldodecylammonium] | 0,28 g % | – | –
CCCCCCCCCCCCC[N+](C)(C)Cc1ccccc1 [chlorure de benzalkonium] | 0,25 g % | – | –
[H]/N=C(\N/C(=N/[H])NCCCCCCNC(=N)NC(=N)Nc1ccc(Cl)cc1)Nc1ccc(Cl)cc1 [digluconate de chlorhexidine] | 0,54 g % | – | –
polihexanide | 12,2 g % | 22 | 44
CCCCCCCCCCCCCCCC[N+](C)(C)Cc1ccccc1 [chlorure de benzyldiméthylhexadecylanmonium] | 0,32 g % | – | –
